Here are results for ten compounds from patent publication US4929614A, “Benzodiazepines, process and intermediates for the preparation thereof and their application in therapy” (Jouveinal S.A., priority 1988, dated 1990).

Read-outs that look alike come from different tables or passages of the source.

The target of series [1] is T1, CCK receptors of rat pancreas (Rattus norvegicus, UniProt P30551).
T1 construct: of rat pancreas plasma membranes; from tissue; host or cells: rat pancreas plasma membranes (SD50 males; animals from IFFA CREDO)
T1 sequence (P30551 1-444): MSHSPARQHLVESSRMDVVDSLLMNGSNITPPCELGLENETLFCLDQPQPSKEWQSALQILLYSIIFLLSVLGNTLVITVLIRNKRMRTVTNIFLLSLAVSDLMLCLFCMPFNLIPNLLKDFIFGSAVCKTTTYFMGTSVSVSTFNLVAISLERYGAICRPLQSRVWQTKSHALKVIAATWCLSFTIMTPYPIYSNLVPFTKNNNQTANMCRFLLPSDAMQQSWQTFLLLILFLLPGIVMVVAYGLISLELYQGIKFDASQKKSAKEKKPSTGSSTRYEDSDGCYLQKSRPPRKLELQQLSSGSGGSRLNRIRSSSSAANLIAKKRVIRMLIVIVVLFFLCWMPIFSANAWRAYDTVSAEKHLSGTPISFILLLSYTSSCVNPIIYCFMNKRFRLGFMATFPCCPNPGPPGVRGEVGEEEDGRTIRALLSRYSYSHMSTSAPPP
The series can be described thus: Inhibition of binding of sulphated [125I]-CCK8 to receptors of rat pancreas plasma membranes. The note with it: for ratio of the IC50 for the brain receptors to the IC50 for the pancreas receptors: guinea-pig brain / rat pancreas. From the text: of rat pancreas plasma membranes (SD50 males, IFFA CREDO, 200-225 g)

Series [2] concerns the target T2, CCK receptors of guinea-pig brain (Cavia porcellus, UniProt H0VZC5).
T2 construct: of guinea-pig brain membranes; from tissue; host or cells: guinea-pig brain membranes (males; animals from COB LABO)
T2 sequence (H0VZC5 1-426): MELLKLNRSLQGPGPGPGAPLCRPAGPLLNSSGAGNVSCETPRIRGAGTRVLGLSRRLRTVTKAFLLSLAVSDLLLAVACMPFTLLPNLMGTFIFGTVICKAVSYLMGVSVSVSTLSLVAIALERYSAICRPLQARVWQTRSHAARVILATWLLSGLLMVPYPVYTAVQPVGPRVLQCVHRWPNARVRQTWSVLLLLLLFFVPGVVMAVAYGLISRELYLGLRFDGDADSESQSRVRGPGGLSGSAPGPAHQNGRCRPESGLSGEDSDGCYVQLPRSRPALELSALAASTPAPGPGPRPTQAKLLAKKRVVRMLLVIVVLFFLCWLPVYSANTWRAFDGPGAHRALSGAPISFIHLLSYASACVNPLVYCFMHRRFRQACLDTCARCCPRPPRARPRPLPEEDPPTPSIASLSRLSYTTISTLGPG
Nature of the series: Inhibition of binding of sulphated [125I]-CCK8 to receptors of guinea-pig brain membranes. From the text:
of guinea-pig brain membranes (males, COB LABO, 325-350 g) according to the protocol described by INNIS R. B. and SNYDER S. M., Eur. J. Pharmacol., 65, 123-124, 1980.

For series [3], the system named is inhibition of gastric emptying caused by sulphated CCK-8. The series can be described thus: Gastric emptying model in mice: antagonism of the inhibition of gastric emptying caused by sulphated CCK-8. It is filed as in vivo, mice (SWISS male). The note with it: Mus musculus, sulphated CCK-8 80 μg/kg, sc.
A further series in a line: Acute toxicity. The note with it: mouse, in vivo, male mice.
The next series in a line: IRWIN's tests (behavior). The note with it: for IRWIN (first dose modifying one of the parameters of behavior): male mice; for selectivity ratio: mouse, in vivo. How it is done:
The acute toxicity was evaluated and IRWIN's tests (IRWIN S., Psychopharmacologia, 13, 222-257, 1968) were performed in male mice (20-21 g).

Where [4] appears, read: guinea-pig brain membranes, read-out: Binding (IC50) [125I]-CCK8-SO4 Brain.

In the case of `O=C(N[C@@H]1N=C(c2ccccc2)c2cccc3c2N(CC3)C1=O)c1cc2ccccc2[nH]1` [If, (+)-(4R)-4-(2-Indolycarbonylamino)-6-phenyl-1,2,3,4-tetrahydropyrrolo[3,2,1-jk][1,4]benzodiazepin-3-one], in series [1], the IC50 (as a rule, the concentration that inhibits the measured activity by half) worked out at 8640 nM and the “ratio of the IC50 for the brain receptors to the IC50 for the pancreas receptors” value (shortened to “ratio of the IC50”) is 2.8. For the same compound, the IC50 in series [2] worked out at 24000 nM.
For the compound `O=C(NC1N=C(c2ccccc2)c2cccc3c2N(CC3)C1=O)c1ccc(Cl)cc1` (centres unmarked) [Ib, 4-(4-Chlorobenzoylamino)-6-phenyl-1,2,3,4-tetrahydropyrrolo-[3,2,1-jk]benzodiazepin[1,4]-3-one], in series [1], the IC50 came to 37 nM and the “ratio of the IC50” value is reported as 83.8. The 50% inhibitory concentration (IC50) in series [2] (setting [4]) worked out at 3100 nM.
Take `O=C(NC1N=C(c2ccccc2F)c2cc(Cl)cc3c2N(CC3)C1=O)c1cc(Cl)cc(Cl)c1` (centres unmarked) [Im, 8-chloro-4-(3,5-dichlorobenzoylamino)-6-(2-fluorophenyl)-1,2,3,4-tetrahydropyrrolo[3,2,1-jk][1,4]benzodiazepin-3-one]: in series [1], the 50% inhibitory concentration (IC50) amounted to 30.6 nM and the “ratio of the IC50” value is recorded as 831.1. Besides, the IC50 in series [2] (setting [4]) was determined as 25400 nM.
As for `O=C(NC1N=C(c2ccccc2)c2cccc3c2N(CC3)C1=O)c1cccc(I)c1` (centres unmarked) [Ic, 4-(3-Iodobenzoylamino)-6-phenyl-1,2,3,4-pyrrolo[3,2,1-j,k][1,4]benzodiazepin-3-one], in series [1], the IC50 was 45 nM and the “ratio of the IC50” value was found to be 195.6. Moreover, in series [2] (setting [4]), the IC50 came out at 8800 nM.
`CN1C(=O)C(NC(=O)c2cc3ccccc3[nH]2)N=C(c2ccccc2)c2ccccc21` (racemic) [IIa, reference compound]: the ED50 (in general, the dose at which the effect has come halfway, by size or by number of responders) in series [3] turned out to be 0.05 mg/kg. The median lethal dose (LD50) (in general, the dose at which mortality reaches 50%) in “Acute toxicity” was > 600 mg/kg.
Turning to `O=C(N[C@H]1N=C(c2ccccc2)c2cccc3c2N(CC3)C1=O)c1cc2ccccc2[nH]1` [Ie, (-)-(4S)-4-(2-Indolylcarbonylamido)-6-phenyl-1,2,3,4-tetrahydropyrrolo[3,2,1-jk][1,4]benzodiazepin-3-one], the ED50 in series [3] stood at 0.087 mg/kg. Also, in series [1], the IC50 was determined as 1.5 nM and the “ratio of the IC50” value is 318.0. Besides, the median lethal dose (LD50) in the series “Acute toxicity” is > 1000 mg/kg. Also, the IC50 in series [2] was 477 nM. In “IRWIN's tests (behavior)”, the “IRWIN (first dose modifying one of the parameters of behavior)” value (“IRWIN” for short) is > 1000 mg/kg and the selectivity ratio is > 11000.
Take `O=C(NC1N=C(c2ccccc2F)c2cccc3c2N(CC3)C1=O)c1cc2ccccc2[nH]1` (centres unmarked) [Ig]: it took a dose of 0.076 mg/kg to reach the 50% effect level in series [3] (ED50). In series [1], the IC50 was 0.023 nM and the “ratio of the IC50” value was 15913. Also, the LD50 in the series “Acute toxicity” is > 1000 mg/kg. The same compound came in with an IC50 in series [2] of 366 nM. Further, in the series “IRWIN's tests (behavior)”, the “IRWIN” value is recorded as > 300 mg/kg and the selectivity ratio was > 3900.
Consider `O=C(NC1N=C(c2ccccc2)c2cccc3c2N(CC3)C1=O)c1cc2ccccc2[nH]1` (centres unmarked) [Ia, 4-(indol-2-ylcarbonylamino)-phenyl-6-tetrahydro-1,2,3,4-pyrrolo[3,2,1-jk][1,4]benzodiazepin-3-one], for which the ED50 in series [3] turned out to be 0.104 mg/kg. Further, in series [1], the IC50 is 5.3 nM and the “ratio of the IC50” value stood at 209.4. In addition, in “Acute toxicity”, the median lethal dose (LD50) was > 1000 mg/kg. In series [2], this compound gave an IC50 of 1110 nM. Moreover, in the series “IRWIN's tests (behavior)”, the “IRWIN” value was > 1000 mg/kg and the selectivity ratio is > 7600.
For `O=C(NC1N=C(c2ccccc2F)c2cc(Cl)cc3c2N(CC3)C1=O)c1cc2cc(Cl)ccc2[nH]1` (centres unmarked) [Il, 8-chloro-4-[(5-chloro-2-indolyl)carbonylamino]-6-(2-fluorophenyl)-1,2,3,4-tetrahydropyrrolo[3,2,1-jk][1,4]benzodiazepin-3-one], the figures for the IC50 in series [1] and in series [2] (setting [4]) were 12.3 nM and 21400 nM, respectively. For the same compound, the “ratio of the IC50” value in series [1] was 2552.2.
Regarding `O=C(NC1N=C(c2ccccc2)c2cccc3c2N(CCC3)C1=O)c1cc2ccccc2[nH]1` (centres unmarked) [In, 5-(2-indolylcarbonylamino)-7-phenyl-1,2,3,3a,4,5-hexahydropyrido[3,2,1-jk][1,4]benzodiazepin-4-one], the concentration for half-maximal inhibition (IC50) in series [1] came out at 3.9 nM; in series [2], 407 nM. Moreover, the “ratio of the IC50” value in series [1] is listed as 104.4.
